Measured values from patent publication US5049548A, “Renin-inhibitory di-, tri-, and tetrapeptides” (Merck & Co., Inc., priority 1989, dated 1991).
pIC50: −log10 of the molar value. Square brackets hold non-standard residues; d marks the D form. Peptide text beside a SMILES is read from it. * marks the point of attachment. Sta = CC(C)C[C@H](N)[C@@H](O)CC(=O)O; Isovaleryl = CC(C)CC(=O)*

Experiments:
human plasma renin = biological target: T1, human plasma renin (Homo sapiens, UniProt P00797); experiment: Renin-inhibitory potency against human plasma renin; assay type: biochemical
T1 construct: determined against human plasma renin; from tissue; host or cells: human plasma
T1 sequence (P00797 67-406): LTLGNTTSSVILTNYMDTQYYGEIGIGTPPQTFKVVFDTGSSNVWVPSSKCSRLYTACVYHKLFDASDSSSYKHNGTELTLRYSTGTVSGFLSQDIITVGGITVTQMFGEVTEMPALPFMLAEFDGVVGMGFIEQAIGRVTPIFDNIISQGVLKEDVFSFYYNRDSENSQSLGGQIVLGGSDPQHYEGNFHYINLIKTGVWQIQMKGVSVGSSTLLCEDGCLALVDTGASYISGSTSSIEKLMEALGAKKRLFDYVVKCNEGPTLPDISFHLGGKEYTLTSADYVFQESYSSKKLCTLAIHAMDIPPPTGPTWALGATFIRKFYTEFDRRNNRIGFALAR
Experimental: Renin-inhibitors potencies were determined against human plasma renin and are expressed as IC50 values.

hog renin = settings: after the injection of hog renin into nephrectomized rats; cited from earlier work

Row | Compound | pIC50 (human plasma renin) | blood pressure in vivo (hog renin)
1 | CCCC[C@H](NC(=O)[C@H](Cc1ccccc1)N[C@@H]1CN2CCC1CC2)C(=O)N[C@@H](CC1CCCCC1)[C@@H](O)CC(=O)N[C@H](C(=O)NCc1ccncc1)[C@@H](C)CC [Example 20, N^α -(quinuclidin-3-yl)Phe-Nle-ACHPA-Ile-AMP] | 8.30 | 
2 | CCCC[C@H](NC(=O)[C@H](Cc1ccccc1)N(C)[C@@H]1CN2CCC1CC2)C(=O)N[C@@H](CC1CCCCC1)[C@@H](O)CC(=O)N[C@H](C(=O)NCc1ccncc1)[C@@H](C)CC [Example 21, N^α -Methyl-N^α -(quinuclidin-3(S)-yl)Phe-Nle-ACHPA-Ile-NHCH2 (pyridin-4-yl)] | 6.82 | 
3 | CCCC[C@H](NC(=O)[C@H](Cc1ccccc1)N[C@@H]1CN2CCC1CC2)C(=O)N[C@@H](CC1CCCCC1)[C@@H](O)C(=O)OCC [Example 30, N^α -(Quinuclidin-3(S)-yl)Phe-Nle-norACHPA-OEt] | 7.04 | 
4 | CC(C)CC(=O)N[C@H](C(=O)N[C@H](C(=O)N[C@@H](CC(C)C)[C@@H](O)CC(=O)N[C@@H](C)C(=O)N[C@@H](CC(C)C)[C@@H](O)CC(=O)O)C(C)C)C(C)C [pepstatin] (Isovaleryl-VV[Sta]A[Sta]-OH) |  | reduces blood pressure in vivo
5 | N^α -(Quinuclidin-3(S)-yl)Phe-His-Cal[CH(OH)CH2 ]Val-NH-n-butyl [Example 27] | 8.85 | 
6 | N^α -[(pyridin-2-yl)methyl]Phe-His-ACHPA-Ile-NHCH2 (pyridin-4-yl) [Example 31] | 8.15 | 

Now from value to compound, other results behind:

Row | pIC50 (human plasma renin) | Compound | blood pressure in vivo (hog renin)
7 | 8.70 | N^α -(Quinuclidin-3-yl)Phe-His-ACHPA-Ile-NHCH2 (pyridin-4-yl) [Example 24] | 
8 | 8.77 | [N^α -(N-Methylquinuclidin-3(S)-yl)Phe-His-ACHPA-Ile-NH-CH2 -(pyridin-4-yl)]^+ I^- [Example 23] | 
